Data as given in US20180215783A1, “BIOORTHOGONAL REACTION OF AN AMINE N-OXIDE AND A BORON AGENT” (The Regents of the University of California, priority 2015, published 2018).

Key:
[1] = test system: HEK293T cells transiently transfected with a cytosolic GFP-HaloTag fusion construct; experiment: Intracellular uncaging and membrane permeability in live cells, confocal microscopy; format: cell-based, human
Description: Green (left column), red (middle column), and blue (not shown) channels represent GFP, TAMRA, and Hoechst 33342 fluorescence, respectively. The merged image (right column) is a composite of all three channels with a phase contrast image.
HEK293T cells were transiently transfected with a cytosolic GFP-HaloTag fusion construct, then treated with 100 µM compound 10.

[2] = Reaction kinetics of amine N-oxide with p-nitrophenylboronic acid in water, UV/vis absorption of p-nitrophenol, pseudo-first order; settings: reaction with p-nitrophenylboronic acid (2) in water, room temperature
Description: A first experiment was performed to determine the kinetic parameters for the reaction between TMAO (1) and p-nitrophenylboronic acid (2) in water (see FIG. 1, panel A). Reaction progress was monitored by UV/vis absorption of product p-nitrophenol (3) under pseudo-first order conditions. A second-order rate constant of 2.83±0.05×10^−6 M^−1s^−1 was determined for the reaction at room temperature, several orders of magnitude below current standards of bioorthogonal reactivity (see e.g., Lang et al., ACS Chem. Biol. 2014, 9, 16; McKay et al. Chem. Biol. 2014, 21, 1075; Patterson et al., ACS Chem. Biol. 2014, 9, 592; (e) Sletten et al., Angew. Chem. Int. Ed. 2009, 48, 6974) but nonetheless a starting point for kinetic optimization.

[3] = Reaction kinetics of N-oxides with B2pin2, stopped-flow fluorometry, pseudo-first order; settings: reaction with B2pin2 in PBS (pH 7.4), pseudo-first order conditions
Description: Data represent the mean of experiments performed in triplicate. […] Data represent the mean of experiments performed in triplicate. Error bars represent a standard deviation. […] Data represent the mean of experiments performed in triplicate. […] Data represent the mean of experiments done in triplicate. Error bars represent a standard deviation.
The kinetics of the reaction were first evaluated using N-oxide 6 (FIG. 2, panel A).
The reaction was then performed on a biomolecule. […] It should be noted, however, that pseudo-first-order kinetics performed under saturating conditions can obscure important information regarding the deactivation of the diboron reagent through sequestration or off-target reactivity. To address this issue, a 64-kDa GFP-HaloTag fusion protein was expressed, ligated to compound 10 to produce GFP-HaloTag-10.

Q: Which “TAMRA signal upon addition of B2pin2” value ([1]; cells loaded with compound, washed, B2pin2 0 μM, 10 μM, 100 μM or 1 mM in media for 45 min) does the source give for “5(6)-HaloTag Tetramethylrhodamine Bis-N-Oxide [compound 10]” here?
A: The value was “increased”.

Q: And the membrane permeability ([1]; live HEK293T cells)?
A: The membrane permeability was “cell permeable”.

Q: With C[N+](C)(C)[O-] [TMAO, Trimethylamine N-oxide] as the compound, how does the second-order rate constant [2] read?
A: Its second-order rate constant is 2.83±0.05×10^−6 M^−1s^−1.

Q: Which second-order rate constant [3] does the source give for HaloTag Rhodol N-Oxide [compound 8] here?
A: Its second-order rate constant is 1.71±0.043×10^3 M^−1s^−1.
